The record followed here is ChEMBL document CHEMBL1201862, “PubChem BioAssay data set” (2004).

Usually GI50 stands for the concentration at which growth is held to half of that of the control.

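These data come from cells grown in 96-well plates and exposed to compound for 48 hours at five concentrations. Here, GI50 denotes the concentration required for 50% inhibition of growth.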 The source made the active and inactive calls. No stated cut-off is given here; in the data, active = GI50 up to about 1.1 µM and inactive = higher.

Common to all, as to assay: DTP human tumour cell line panel, 48 h
The subject of assay [1] is HCT-15.
Assay [2] deals with OVCAR-4.
In assay [3] the test system is ACHN.
Assay [4] has as its system MDA-MB-435.
For assay [5], the system named is HOP-92.
Assay [6] has as its system COLO 205.
Assay [7] has as its system KM12.
Assay [8] has as its system CAKI-1.
The subject of assay [9] is NCI-H226.
Assay [10] concerns M14.
The subject of assay [11] is SW-620.
The subject of assay [12] is HOP-62.
For assay [13], the system named is SK-MEL-2.
The test system of assay [14] is SF-268.
In assay [15] the test system is RPMI-8226.
The test system of assay [16] is HT-29.
The test system of assay [17] is NCI-H23.
The test system of assay [18] is SF-539.
The test system of assay [19] is RXF 393.
For assay [20], the system named is LOX IMVI.

On to `Nc1ccn([C@H]2CO[C@@H](CO)O2)c(=O)n1`, for which the GI50 in assay [1] was 5.4 µM; in [2] it was > 100 µM (inactive); in assay [3], 0.106 µM (active); in assay [4], 20.8 µM (inactive); in [5], 1.82 µM (inactive); in [6] it was 83 µM (inactive). Besides, the GI50 in assay [7] was > 100 µM (inactive); in assay [8], 0.222 µM (active); in assay [9], 39.4 µM (inactive); in [10], 0.83 µM (active); in [11], > 56.6 µM (inactive); in assay [12], 1.67 µM (inactive). Further, the GI50 in assay [13] is > 100 µM (inactive); in assay [14] it was 11.4 µM (inactive); in assay [15], > 94 µM (inactive); in assay [16], 15 µM (inactive); in assay [17], 15.1 µM (inactive); in assay [18] it was 4.46 µM (inactive). The GI50 is 1.83 µM (inactive) in [19] and 0.804 µM (active) in assay [20].

With `COC(=O)c1c(CC(Cc2ccc3c(c2)CCCC3)C(=O)O)ccc2c1CCCC2` (stereo not given), the GI50 in assay [1] was 18 µM; in assay [2] it was 34.5 µM (inactive); in [3] it was 34 µM (inactive); in assay [4], 34.2 µM (inactive); in assay [5] it was 25.2 µM (inactive); in [6], 18.3 µM (inactive). Besides, the GI50 in assay [7] was 27.4 µM (inactive); in assay [8], 36 µM (inactive); in assay [9] it was 39.9 µM (inactive); in assay [10], 42.9 µM (inactive); in assay [11] it was 40.7 µM (inactive); in assay [12], 22.8 µM (inactive). Besides, the GI50 in [13] was 20.9 µM (inactive); in assay [14], 37.1 µM (inactive); in assay [15], 27.6 µM (inactive); in assay [16], 33 µM (inactive); in [17], 60.4 µM (inactive); in [18], 22.5 µM (inactive). Besides, the GI50 in assay [19] is 35.2 µM (inactive); in assay [20], 17.5 µM (inactive).

For the compound `CN(C)Cc1c[nH]c2ncnc(O)c12`, the GI50 was 35.5 µM in [1]; 32.8 µM (inactive) in assay [2]; 38 µM (inactive) in assay [3]; 31.8 µM (inactive) in [4]; 38.9 µM (inactive) in assay [5]; 35.8 µM (inactive) in assay [6]. Besides, the GI50 in assay [7] is > 100 µM (inactive); in assay [8] it was 19.8 µM (inactive); in assay [9], > 100 µM (inactive); in [10], 41.2 µM (inactive); in [11], 27.2 µM (inactive); in assay [12], > 100 µM (inactive). The GI50 in [13] was 43.6 µM (inactive); in assay [14], 73.1 µM (inactive); in assay [15] it was 20.6 µM (inactive); in assay [16], 28.2 µM (inactive); in [17] it was 32.2 µM (inactive); in assay [18], 22.4 µM (inactive). Also, the GI50 was 18.6 µM (inactive) in assay [19] and 19 µM (inactive) in [20].

Take `C=C1CC2(CCOc3ccc(Cl)cc32)OC1=O` (stereo not given): the GI50 is 0.935 µM in [1]; 1.91 µM (inactive) in assay [2]; 4.86 µM (inactive) in [3]; 2.82 µM (inactive) in [4]; 3.48 µM (inactive) in assay [5]; 1.64 µM (inactive) in assay [6]. Besides, the GI50 in assay [7] was 13.7 µM (inactive); in assay [8], 2.33 µM (inactive); in assay [9], 2.81 µM (inactive); in assay [10] it was 2.54 µM (inactive); in [11], 1.26 µM (inactive); in assay [12] it was 5.35 µM (inactive). The GI50 was 1.86 µM (inactive) in [13]; 6.22 µM (inactive) in assay [14]; 0.667 µM (active) in [15]; 5.86 µM (inactive) in assay [16]; 5.22 µM (inactive) in [17]; 0.284 µM (active) in [18]. Also, the GI50 in assay [19] is 2.23 µM (inactive); in assay [20], 2.44 µM (inactive).

Take `CC(C)=CCC/C(C)=C/CC/C(C)=C/CC/C(C)=C/CC/C(C)=C/CC/C(C)=C/CC/C(C)=C/CC/C(C)=C/CC/C(C)=C/CO` [SOLANESOL]: the GI50 in [1] was more than 100 µM; in assay [2], > 100 µM (inactive); in assay [3], > 100 µM (inactive); in assay [4] it was > 100 µM (inactive); in [5], > 100 µM (inactive); in assay [6] it was > 100 µM (inactive). Further, the GI50 in assay [7], in assay [8], in assay [9], in [10], in [11] and in assay [12] was > 100 µM (inactive) each time. The GI50 in assay [13], in assay [14], in [15], in assay [16], in [17] and in assay [18] was > 100 µM (inactive) throughout. Also, the GI50 in [19] and in assay [20] was > 100 µM (inactive) in each case.

Regarding `COC(=O)C(COC(=O)/C=C/c1ccc(OC(C)=O)c(OC(C)=O)c1)NC(=O)/C=C/c1ccc(OC(C)=O)c(OC(C)=O)c1` (stereo not given), the GI50 is 25.5 µM in assay [1]; 20.7 µM (inactive) in assay [2]; 25.6 µM (inactive) in assay [3]; 28.3 µM (inactive) in assay [4]; 32.7 µM (inactive) in [5]; 20.7 µM (inactive) in assay [6]. Besides, the GI50 was 17.6 µM (inactive) in assay [7]; 18.5 µM (inactive) in assay [8]; 36.2 µM (inactive) in assay [9]; 17.6 µM (inactive) in assay [10]; 33.4 µM (inactive) in assay [11]; 23 µM (inactive) in assay [12]. For the same compound, the GI50 is 18.3 µM (inactive) in assay [13]; > 10 µM (inactive) in assay [14]; 19.6 µM (inactive) in [15]; 19.8 µM (inactive) in assay [16]; 25.9 µM (inactive) in [17]; 31.8 µM (inactive) in [18]. Also, the GI50 in assay [19] was 37.1 µM (inactive); in assay [20] it was 16.3 µM (inactive).

On to `C=CC(=O)N1C/C(=C\c2ccc(F)cc2)C(=O)/C(=C/c2ccc(F)cc2)C1`, for which the GI50 in assay [1] was 0.166 µM; in assay [2], 0.339 µM (active); in assay [3] it was 0.259 µM (active); in assay [4] it was 0.299 µM (active); in assay [5], 3.03 µM (inactive); in assay [6], 0.391 µM (active). The 50% growth inhibitory concentration (GI50) is 0.193 µM (active) in assay [7]; 0.475 µM (active) in [8]; 0.352 µM (active) in [9]; 0.328 µM (active) in assay [10]; 0.162 µM (active) in assay [11]; 0.516 µM (active) in assay [12]. Moreover, the GI50 is 0.843 µM (active) in [13]; 0.206 µM (active) in [14]; 0.0318 µM (active) in assay [15]; 0.071 µM (active) in assay [16]; 1.27 µM (inactive) in [17]; 0.214 µM (active) in assay [18]. Besides, the GI50 is 0.185 µM (active) in assay [19] and 0.0925 µM (active) in assay [20].

Regarding `NC1=CN2c3ccccc3N(CC(=O)O)C2C=C1` (stereo not given), the 50% growth inhibitory concentration (GI50) was more than 100 µM in assay [1]; > 100 µM (inactive) in assay [2]; > 100 µM (inactive) in [3]; > 100 µM (inactive) in assay [4]; > 100 µM (inactive) in assay [5]; > 100 µM (inactive) in [6]. In addition, the GI50 in assay [7], in [8], in assay [9], in assay [10], in assay [11] and in assay [12] was > 100 µM (inactive) throughout. Besides, the GI50 in assay [13], in assay [14], in [15], in assay [16], in [17] and in assay [18] was > 100 µM (inactive) throughout. Further, the GI50 in assay [19] and in [20] was > 100 µM (inactive) in each case.

`CC(C)C(/C=C/c1ccccc1)=N\NC(=S)NN`: the GI50 in assay [1] was 31.6 µM; in assay [2], 50.5 µM (inactive); in assay [3], 40.6 µM (inactive); in assay [4] it was 49.5 µM (inactive); in assay [5], 36.4 µM (inactive); in [6] it was 55.1 µM (inactive). In addition, the GI50 is > 86.1 µM (inactive) in [7]; 39.4 µM (inactive) in assay [8]; > 70.3 µM (inactive) in assay [9]; > 100 µM (inactive) in assay [10]; 66.5 µM (inactive) in [11]; > 84.1 µM (inactive) in assay [12]. In addition, the GI50 in assay [13] was > 55.6 µM (inactive); in assay [14] it was 20.7 µM (inactive); in [15], 14.2 µM (inactive); in assay [16], 98.2 µM (inactive); in [17], > 77.3 µM (inactive); in assay [18] it was > 51.1 µM (inactive). Also, the GI50 in assay [19] was 99.8 µM (inactive); in [20], 16.5 µM (inactive).

On to `Cc1nc2ccccc2n1Cc1ccc(NC(=S)NC2CCCCC2)cc1`, for which the GI50 in assay [1] was 8.95 µM; in assay [2], 10.1 µM (inactive); in assay [3] it was 4.49 µM (inactive); in [4], 6.84 µM (inactive); in assay [5] it was 41.3 µM (inactive); in [6], 31.1 µM (inactive). Besides, the GI50 was 24.3 µM (inactive) in assay [7]; 38 µM (inactive) in assay [8]; 24.9 µM (inactive) in [9]; 30.1 µM (inactive) in assay [10]; 41.3 µM (inactive) in assay [11]; > 75 µM (inactive) in assay [12]. In addition, the GI50 in [13] was 15.7 µM (inactive); in assay [14] it was 17.2 µM (inactive); in assay [15], 13.4 µM (inactive); in assay [16] it was 30.3 µM (inactive); in [17], 17.5 µM (inactive); in assay [18], > 72.3 µM (inactive). The values for the GI50 in assay [19] and in assay [20] were 23.8 µM (inactive) and 10.6 µM (inactive), respectively.
